{
  "source": "patent US8202886B2",
  "about": "“Small molecule E2F inhibitor” (H. Lee Moffitt Cancer Center and Research Institute, Inc., priority 2008, dated 2012)",
  "key": {"8226-s": {"tested_on": "8226-s", "experiment": "MTS viability assay, 8226-s", "assay_type": "cell-based", "details": "Homo sapiens; 8226-s parental", "method": "(§1) Cells were collected 24 hours post drug exposure and extracts subjected to western blotting using antibodies to the indicated proteins. Cleavage of PARP indicates apoptosis.\n(§2) To examine its effect on a range of commonly studied cell lines, the inventors utilized standard MTS assays to quantify cell viability following the therapeutic compound treatment. Cytotoxicity was determined using MTS assays, which were conducted using a CellTiter 96® AQueous One Cell Proliferation Assay Kit (Promega) following the published protocol. Cells in 0.1 ml volume were plated in triplicate into 96-well plates, 1×10^4 cells/well. the therapeutic compound was added and after 24 hours of incubation at 37° C., 20 μl of MTS dye was added to each well. Plates were read at 490 nm following 4 hrs MTS reaction time. The concentration of drug which produced a 50% inhibition of growth (IC50) was calculated from linear regression analysis of the linear portion of the growth curves."}, "8226-dox40": {"tested_on": "8226-dox40", "experiment": "MTS viability assay, 8226-dox40", "assay_type": "cell-based", "details": "Homo sapiens", "method": "as §1, §2"}, "MDA-MB-231": {"tested_on": "MDA-MB-231", "experiment": "Apo-BrdU TUNEL apoptosis assay, MDA-MB-231", "assay_type": "cell-based, human", "details": "40-μM, 24-hrs", "text": "(§3) To determine if treatment with the therapeutic compound contributes to apoptosis, Cells were detached from culture plates by trypsin treatment, washed twice with PBS, and fixed in 70% ethanol. Fixed cells were washed twice with PBS and treated with RNase A and propidium iodide (PI). PI staining was examined using a Becton-Dickinson FACScan instrument and Cell Quest software. TUNEL assay for apoptosis utilized a Pharmingen APO-BRDU Kit. MTS (3-(4,5-dimethylthiazol-2-yl)-5-(3-carboxymethoxyphenyl)-2-(4-sulfophenyl)-2H-tetrazolium, inner salt) assays were conducted using a CellTiter 96® AQueous One Cell Proliferation Assay Kit (Promega).\n(§4) A375, MDA-MB-231 (231), MCF-7 and human foreskin fibroblasts (HFF) cells were treated with 40-μM of the therapeutic compound for 24-hrs and subjected to a FACS based terminal deoxynucleotidyl transferase (TUNEL) assay (Apo-BrdU Kit from BD Pharmingen)."}, "MCF-7": {"tested_on": "MCF-7", "experiment": "Apo-BrdU TUNEL apoptosis assay, MCF-7", "assay_type": "cell-based, human", "details": "40-μM, 24-hrs", "text": "as §3, §4"}, "[1]": {"tested_on": "human foreskin fibroblasts (HFF)", "experiment": "Apo-BrdU TUNEL apoptosis assay, HFF", "assay_type": "cell-based", "details": "40-μM, 24-hrs", "text": "as §3, §4"}, "A375 cells [2]": {"tested_on": "A375 cells", "experiment": "Propidium iodide flow cytometry, sub-G1 DNA content", "assay_type": "cell-based, human", "details": "40-μM", "text": "as §3"}, "WT MEFS": {"tested_on": "WT MEFS", "experiment": "Apoptosis (ApoBrdU, PARP western) in WT MEFs", "assay_type": "cell-based, mouse", "method": "FIG. 12A: MEFS derived from sibling WT and E2F4^−/− mice were treated for 24-hrs with the indicated doses of HLM006474. Apoptosis was determined using ApoBrdU (BD Pharmingen).\nFIG. 12B: MEFS derived from sibling WT and E2F4^−/− mice were treated as in A subjected to western blotting using a PARP antibody or E2F4 antibody. PARP cleavage (as indicated by the arrow) is an independent measure of apoptosis.\nTo determine if the effect of the therapeutic compound is dependent upon E2F4, the inventors compared the therapeutic compound response of immortalized MEFs derived from E2F4-deficient mice with MEFS derived from wildtype siblings."}, "lung cancer cell lines": {"tested_on": "lung cancer cell lines", "experiment": "CT Blue Viability Assay, drug combinations", "assay_type": "cell-based", "details": "combination with taxol", "method": "The indicated lung cancer cell lines were exposed to taxol, cisplatin, or gemacitabine alone, the therapeutic compound alone, or a combination as indicated. These experiments and analysis were performed in the Experimental Therapeutics Core using the CT Blue Viability Assay."}, "H460": {"tested_on": "H460", "experiment": "Western blots of treated H460 cells", "assay_type": "cell-based", "method": "(§5) In order to further examine the mechanism of action of the therapeutic compound four lung cancer cell lines were treated with various concentrations of drug and western blots performed on cell extracts after 24 hr."}, "A549": {"tested_on": "A549", "experiment": "Western blots of treated A549 cells", "assay_type": "cell-based", "method": "as §5"}, "H292": {"tested_on": "H292", "experiment": "Western blots of treated H292 cells", "assay_type": "cell-based", "method": "as §5"}, "H358": {"tested_on": "H358", "experiment": "Western blots of treated H358 cells", "assay_type": "cell-based", "details": "H358, 40 micromolar, 24 hrs", "method": "The indicated NSCLC lines were treated with 40 micromolar the therapeutic compound and subjected western blotting 24 hrs later using the indicated antibodies."}, "[3]": {"tested_on": "8226-s, 8226-dox40 and 8226-MR20", "experiment": "PARP cleavage western in drug sensitive and resistant 8226 lines", "assay_type": "cell-based, human", "details": "24 hours; 10 μM cisplatin or 10, 20 or 40 μM HLM006474", "method": "as §1"}, "A375 cells [4]": {"tested_on": "A375 cells", "experiment": "MTS proliferation/viability over time", "assay_type": "cell-based, human", "details": "40 μM, 24-, 48- and 72-hrs", "method": "To examine its effect on a range of commonly studied cell lines, the inventors utilized standard MTS assays to quantify cell viability following the therapeutic compound treatment. Cytotoxicity was determined using MTS assays, which were conducted using a CellTiter 96® AQueous One Cell Proliferation Assay Kit (Promega) following the published protocol. […] Plates were read at 490 nm following 4 hrs MTS reaction time. The concentration of drug which produced a 50% inhibition of growth (IC50) was calculated from linear regression analysis of the linear portion of the growth curves."}, "E2F complexes": {"tested_on": "E2F complexes", "experiment": "E2F EMSA on extracts of treated breast cancer cell lines", "assay_type": "cell-based", "details": "40 μM", "method": "Several breast cancer cell lines were treated with 40 μM HLM006474 and extracts subjected to E2F EMSA assay.\nQuantitative EMSA assays were performed in triplicate."}, "MCF7 cells": {"tested_on": "MCF7 cells", "experiment": "RNase protection assay, MCF7", "assay_type": "cell-based, human", "method": "The indicated breast cancer lines were treated with 40 micromolar the therapeutic compound and subjected RNAse protection assay 24 hrs later using the indicated probes.\nAn RNase protection assay was performed to determine if downregulation of the Rb family members at the level of mRNA could account for the downregulation of the proteins. Two breast cancer cell lines were examined at 0, 3, 6, 9, 18 and 24 hr following the therapeutic compound treatment (FIG. 21)."}, "E2F4": {"target": "E2F4 (Homo sapiens, UniProt Q16254)", "sequence (Q16254 whole entry)": "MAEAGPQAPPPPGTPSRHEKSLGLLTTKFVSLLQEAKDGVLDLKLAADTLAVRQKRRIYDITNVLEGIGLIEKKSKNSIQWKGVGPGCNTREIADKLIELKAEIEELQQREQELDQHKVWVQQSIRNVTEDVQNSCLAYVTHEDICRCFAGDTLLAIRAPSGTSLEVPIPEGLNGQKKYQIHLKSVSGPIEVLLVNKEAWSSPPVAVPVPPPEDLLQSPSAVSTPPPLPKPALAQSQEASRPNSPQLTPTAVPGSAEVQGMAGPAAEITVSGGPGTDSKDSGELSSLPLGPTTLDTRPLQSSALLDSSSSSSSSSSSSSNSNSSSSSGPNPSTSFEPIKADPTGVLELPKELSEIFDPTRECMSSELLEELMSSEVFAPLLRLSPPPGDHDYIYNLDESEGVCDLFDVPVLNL", "experiment": "Whole-membrane E2F4 western for cleavage products", "assay_type": "cell-based", "design": "endogenous in cells", "details": "40 uM", "procedure": "The indicated cell lines were treated with 40 micromolar the therapeutic compound and subjected to western blotting 24 hrs later. In this case, the entire lanes were subjected to western blot with an E2F4 antibody in order to detect potential immunoreactive truncation products.\nFor this experiment cells were treated with 40 uM the therapeutic compound and were subjected to western blotting. However, rather than cut the western membrane into three pieces (to probe simultaneously for three proteins of different sizes) the entire membrane was used to reveal smaller immunoreactive bands."}, "A375 cells [5]": {"tested_on": "A375 cells", "experiment": "Western blots of treated A375 cells", "procedure": "Actin served as a loading control in these experiments and in those that follow.\nTo determine the activity of the therapeutic compound over time, A375 cells were treated with 40-μM of compound and examined at 0-, 3-, 6-, 9-, 12-, 18- and 24-hrs by EMSA and western (FIG. 11A).\nTo further examine the timing of the therapeutic compound-induced apoptosis, A375 cells were treated with 40-μM the therapeutic compound, harvested and fixed at various time periods.\nTo compare the mechanism of the therapeutic compound-induced apoptosis with that of several standard DNA damaging drugs, A375 cells were treated for 24-hrs with 40-μM the therapeutic compound, 10 μM cisplatin, 10 nM doxorubicin, 10 μM VP16 (etoposide) or with two-drug combinations.\nWestern blots utilized 50 μg of whole cell extract per lane as previously described. […] Detection of proteins was accomplished using horseradish-peroxidase-conjugated secondary antibodies and enhanced chemiluminescence (ECL) purchased from Amersham."}},
  "data": [
    {"smiles": "CCOc1ccc(C(Nc2ccccn2)c2ccc3ccc(C)nc3c2O)cc1C", "note": "(stereo not shown) [HLM006474]", "values": [
      {"measurement": "IC50", "setting": "8226-s", "result": "36 ± 6", "unit": "µM"},
      {"measurement": "IC50", "setting": "8226-dox40", "result": "31 ± 4", "unit": "µM"},
      {"measurement": "apoptosis (TUNEL)", "setting": "MDA-MB-231", "result": "dramatic induction of apoptosis"},
      {"measurement": "apoptosis (TUNEL)", "setting": "MCF-7", "result": "did not induce an obvious increase in apoptosis"},
      {"measurement": "apoptosis (TUNEL)", "setting": "[1]", "result": "did not induce an obvious increase in apoptosis"},
      {"measurement": "time at which increase in sub-G1 DNA content begins", "setting": "A375 cells [2]", "result": "approximately 9 hrs"},
      {"measurement": "level of apoptosis in WT cells as compared to E2F4-deficient cells", "setting": "WT MEFS; 24-hrs, ApoBrdU", "result": "two-fold increase"},
      {"measurement": "concentration at which PARP cleavage is evident", "setting": "WT MEFS; E2F4 proficient MEFs", "result": 20, "unit": "µM"},
      {"measurement": "synergy with taxol", "setting": "lung cancer cell lines", "result": "synergizes significantly"},
      {"measurement": "Bcl-2 or Mcl-2 (western)", "setting": "H460; H460, 40-μM", "result": "did not show changes"},
      {"measurement": "sensitivity (downregulation of E2F1 and E2F4, PARP cleavage)", "setting": "H460; H460, various concentrations, 24 hr", "result": "very sensitive"},
      {"measurement": "Mcl-1 (western)", "setting": "A549; A549, 40-μM", "result": "downregulation of Mcl-1"},
      {"measurement": "sensitivity (downregulation of E2F1 and E2F4, PARP cleavage)", "setting": "A549; A549, various concentrations, 24 hr", "result": "limited sensitivity"},
      {"measurement": "Mcl-1 (western)", "setting": "H292; H292, 40-μM", "result": "downregulation of Mcl-1"},
      {"measurement": "sensitivity (downregulation of E2F1 and E2F4, PARP cleavage)", "setting": "H292; H292, various concentrations, 24 hr", "result": "limited sensitivity"},
      {"measurement": "cyclin A or E2F1 (western)", "setting": "H358", "result": "no decrease"},
      {"measurement": "PARP cleavage (apoptosis) in sensitive versus resistant lines", "setting": "[3]", "result": "very similar"},
      {"measurement": "cellular proliferation/viability (MTS)", "setting": "A375 cells [4]", "result": "significantly affected"},
      {"measurement": "DNA-binding of all E2F complexes (EMSA)", "setting": "E2F complexes", "result": "inhibited"},
      {"measurement": "Rb at the mRNA level", "setting": "MCF7 cells; MCF7", "result": "no significant change"},
      {"measurement": "p21 mRNA", "setting": "MCF7 cells; MCF7", "result": "upregulated"},
      {"measurement": "mRNA for p107", "setting": "MCF7 cells; MCF7, 0-24 hr", "result": "repressed"},
      {"measurement": "E2F4 immunoreactive truncation product", "setting": "E2F4", "result": "appearance of a 40 kD band"},
      {"measurement": "expression of E2F4 or E2F1 (western)", "setting": "A375 cells [5]; 9-hrs of treatment", "result": "does not significantly affect"},
      {"measurement": "Mcl-1 (western)", "setting": "A375 cells [5]; 24-hrs, 40-μM", "result": "may slightly repress Mcl-1"},
      {"measurement": "PARP cleavage (western)", "setting": "A375 cells [5]; 24-hrs, 40-μM", "result": "potent inducer of PARP cleavage"},
      {"measurement": "time at which PARP cleavage indicates significant apoptosis", "setting": "A375 cells [5]; 40-μM", "result": "≤ 12", "unit": "h"},
      {"measurement": "time at which decrease in total E2F4 protein became apparent", "setting": "A375 cells [5]; 40-μM", "result": "up to 24 hrs"}
    ]}
  ]
}
